# Experiments:
# Format in all cases: in vivo
# [1] = test system: Scirpus juncoides; assay: Test for Herbicidal Effect in Flooding Treatment (#1), SCIJU; details: flooding treatment at seeding, dose 2 kg/ha, visual observation on day 21
# Procedure, shortened: (§1)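 Sieved soil in cups was flooded and left 24 h before weed seeds were sown. Compounds in acetone, diluted with Tween 80-containing water, were dropped over the whole surface at 2 kg/ha. After 21 days in a glasshouse, growth inhibition was scored visually from 0 (<10%) to 5 (≥90% or complete withering).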
# [2] = test system: Echinochloa crus-galli (L.) P. Beauv. var. formosensis Ohwi; assay: Test for Herbicidal Effect in Flooding Treatment (#2), ECHDG at 2-2.5 leaf stage; details: for ECHDG (2-2.5L) #2 herbicidal effect (growth inhibition grade): flooding treatment at 2-2.5 leaf stage, dose 0.2 kg/ha, visual observation on day 21
# Procedure, shortened: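 Flooded muddy soil was seeded with the weed, and at 2–2.5 leaf stage compound in acetone/Tween 80 water was dropped on the water surface at 0.2 kg/ha. Plants were kept in a glasshouse and scored visually on day 21 from 0 (<10% growth inhibition) to 5 (≥90% or complete withering).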
# [3] = test system: Echinochloa crus-galli (L.) P. Beauv. var. formosensis Ohwi; assay: Test for Herbicidal Effect in Flooding Treatment (#1), ECHDG; details: flooding treatment at seeding, dose 2 kg/ha, visual observation on day 21
# Procedure, shortened: as §1
# [4] = test system: Cyperus microiria; assay: Test for Herbicidal Effect in Flooding Treatment (#1), CYMIC; details: flooding treatment at seeding, dose 2 kg/ha, visual observation on day 21
# Procedure, shortened: as §1
SMILES,SCIJU #1 herbicidal effect (growth inhibition grade) [1],ECHDG (2-2.5L) #2 herbicidal effect (growth inhibition grade) [2],ECHDG #1 herbicidal effect (growth inhibition grade) [3],CYMIC #1 herbicidal effect (growth inhibition grade) [4],"inhibition at 200 g/ha ([2]; Echinochloa crus-galli, 504 h, flooding treatment (#2), ECHDG at 2-2.5 leaf stage, dose of 0.2 kg/ha, day 21, visual observation, read-out: growth inhibition effect)"
N#Cc1ccc(CS(=O)(=O)c2ncc(Cl)s2)cc1 [Compound 1C-172],"5 (Growth inhibition effect is equal to or greater than 90%, or complete withering is achieved)","2 (Growth inhibition effect is equal to or greater than 30%, and less than 50%)","5 (Growth inhibition effect is equal to or greater than 90%, or complete withering is achieved)","5 (Growth inhibition effect is equal to or greater than 90%, or complete withering is achieved)",–
CCOc1ccc(Cl)c(CS(=O)(=O)c2ncc(Cl)s2)c1 [Compound 1C-80],"5 (Growth inhibition effect is equal to or greater than 90%, or complete withering is achieved)","5 (Growth inhibition effect is equal to or greater than 90%, or complete withering is achieved)","5 (Growth inhibition effect is equal to or greater than 90%, or complete withering is achieved)","5 (Growth inhibition effect is equal to or greater than 90%, or complete withering is achieved)",–
CN(C)c1cc(Cl)cc(CS(=O)(=O)c2ncc(Cl)s2)c1Cl [Compound 1C-170],"5 (Growth inhibition effect is equal to or greater than 90%, or complete withering is achieved)","5 (Growth inhibition effect is equal to or greater than 90%, or complete withering is achieved)","5 (Growth inhibition effect is equal to or greater than 90%, or complete withering is achieved)","5 (Growth inhibition effect is equal to or greater than 90%, or complete withering is achieved)",–
COc1ccc(OC)c(CS(=O)(=O)c2ncc(Cl)s2)c1 [Compound 1C-126],"5 (Growth inhibition effect is equal to or greater than 90%, or complete withering is achieved)","3 (Growth inhibition effect equal to or greater than 50%, and less than 70%)","5 (Growth inhibition effect is equal to or greater than 90%, or complete withering is achieved)","5 (Growth inhibition effect is equal to or greater than 90%, or complete withering is achieved)",–
O=S(=O)(Cc1ccccc1OC(F)(F)F)c1ncc(Cl)s1 [Compound 1C-46],"5 (Growth inhibition effect is equal to or greater than 90%, or complete withering is achieved)","5 (Growth inhibition effect is equal to or greater than 90%, or complete withering is achieved)","5 (Growth inhibition effect is equal to or greater than 90%, or complete withering is achieved)","5 (Growth inhibition effect is equal to or greater than 90%, or complete withering is achieved)",–
COc1ccc(Cl)c(CS(=O)(=O)c2ncc(Cl)s2)c1F [Compound 1C-71],"5 (Growth inhibition effect is equal to or greater than 90%, or complete withering is achieved)","5 (Growth inhibition effect is equal to or greater than 90%, or complete withering is achieved)","5 (Growth inhibition effect is equal to or greater than 90%, or complete withering is achieved)","5 (Growth inhibition effect is equal to or greater than 90%, or complete withering is achieved)",–
COc1cc(CS(=O)(=O)c2ncc(Cl)s2)cc(OC)c1OC [Compound 1C-128],"4 (Growth inhibition effect is equal to or greater than 70%, and less than 90%)","1 (Growth inhibition effect is equal to or greater than 10%, and less than 30%)","5 (Growth inhibition effect is equal to or greater than 90%, or complete withering is achieved)","5 (Growth inhibition effect is equal to or greater than 90%, or complete withering is achieved)",–
CCOc1cccc(Cl)c1CS(=O)(=O)c1ncc(Cl)s1 [Compound 1C-20],"5 (Growth inhibition effect is equal to or greater than 90%, or complete withering is achieved)","5 (Growth inhibition effect is equal to or greater than 90%, or complete withering is achieved)","5 (Growth inhibition effect is equal to or greater than 90%, or complete withering is achieved)","5 (Growth inhibition effect is equal to or greater than 90%, or complete withering is achieved)",≥ 90%
COc1cc(Cl)ccc1CS(=O)(=O)c1ncc(Cl)s1 [Compound 1C-4],"5 (Growth inhibition effect is equal to or greater than 90%, or complete withering is achieved)","5 (Growth inhibition effect is equal to or greater than 90%, or complete withering is achieved)","5 (Growth inhibition effect is equal to or greater than 90%, or complete withering is achieved)","5 (Growth inhibition effect is equal to or greater than 90%, or complete withering is achieved)",–
"O=S(=O)(Cc1cccc(OC(F)(F)F)c1)c1ncc(Cl)s1 [Compound 1C-85, 5-chloro-2-{[3-(trifluoromethoxy)phenyl][methanesulfonyl]}-1,3-thiazole]","5 (Growth inhibition effect is equal to or greater than 90%, or complete withering is achieved)","1 (Growth inhibition effect is equal to or greater than 10%, and less than 30%)","5 (Growth inhibition effect is equal to or greater than 90%, or complete withering is achieved)","5 (Growth inhibition effect is equal to or greater than 90%, or complete withering is achieved)",–
CCOc1c(F)c(F)c(CS(=O)(=O)c2ncc(Cl)s2)c(F)c1F [Compound 1C-108],"5 (Growth inhibition effect is equal to or greater than 90%, or complete withering is achieved)","5 (Growth inhibition effect is equal to or greater than 90%, or complete withering is achieved)","5 (Growth inhibition effect is equal to or greater than 90%, or complete withering is achieved)","5 (Growth inhibition effect is equal to or greater than 90%, or complete withering is achieved)",–
CCCCOc1cc(F)c(CS(=O)(=O)c2ncc(Cl)s2)c(F)c1 [Compound 1C-112],"5 (Growth inhibition effect is equal to or greater than 90%, or complete withering is achieved)","3 (Growth inhibition effect equal to or greater than 50%, and less than 70%)","5 (Growth inhibition effect is equal to or greater than 90%, or complete withering is achieved)","5 (Growth inhibition effect is equal to or greater than 90%, or complete withering is achieved)",–
O=S(=O)(Cc1cccc(OC(F)F)c1)c1ncc(Cl)s1 [Compound 1C-84],"5 (Growth inhibition effect is equal to or greater than 90%, or complete withering is achieved)","3 (Growth inhibition effect equal to or greater than 50%, and less than 70%)","5 (Growth inhibition effect is equal to or greater than 90%, or complete withering is achieved)","5 (Growth inhibition effect is equal to or greater than 90%, or complete withering is achieved)",–
CCOc1cc(C(F)(F)F)ccc1CS(=O)(=O)c1ncc(Cl)s1 [Compound 1C-14],"5 (Growth inhibition effect is equal to or greater than 90%, or complete withering is achieved)","4 (Growth inhibition effect is equal to or greater than 70%, and less than 90%)","5 (Growth inhibition effect is equal to or greater than 90%, or complete withering is achieved)","5 (Growth inhibition effect is equal to or greater than 90%, or complete withering is achieved)",–
